The values below come from patent US20030096760A1, “Method of antagonizing the human SRC SH2 domain” (SmithKlineBeecham Corporation, priority 1997, published 2003).

*1 amine or outer side, *2 acyl side, *3 side chain or, on linkers, in order; H or OH if unused. Where a SMILES comes first, the peptide text is derived from it. [ ]: non-standard residue; d: D form. X1 = O=C1OC(O)c2cc(C[C@H](N[*:1])C(=O)[*:2])ccc21

The assay deals with T1, human src SH2 domain (Homo sapiens, UniProt P12931).
T1 construct: made in house; host or cells: E. coli strain AR120 (vector pEA1KnRBS3)
Nature of the assay: ELISA-based binding assay of human src SH2 domain fusion protein and biotinylated pY peptide. The conditions noted are these: DET1-DET2-spacer-ek-src SH2 fusion protein; 0.1 uM biotinylated pY peptide; 3 hr at 4° C.; read-out: Activity at cloned human Src SH2 domain (IC50). As to the method:
The inhibitory activity of compounds at the human src SH2 domain was determined in vitro using the human src SH2 domain expressed as fusion proteins in E. coli.
The fusion protein containing the human SH2 domain was expressed as the general sequence: DET1-DET2-spacer-ek-SH2, where DET1, DET2, spacer, ek and SH2 are as described below. DET1 (“defined epitope tag 1”) (SEQ ID NO: 1) is an 11 amino acid sequence found in the Human Immunodeficiency Virus Type 1 (HIV-1) envelope protein gp120 (or gp160). Monoclonal antibodies to various epitopes of HIV-1 gp120 (or gp160) are known in the art, see, for example U.S. Pat. No. 5,166,050. One preferred example is monoclonal antibody 178.1 (see, e.g., Thiriart et al., J. Immunol., 143:1832-1836 (1989)), which was prepared by immunization of mice with a yeast-expressed HIV-1 gp160 molecule from strain BH10 (Ratner et al., Nature, 313:277-284 (1985)). This tag was used for detection of expression (by Western blot), for purification of the protein (by affinity chromatography), and for configuring assays in which the fusion protein was captured or immobilized using the 178.1 antibody. DET2 is a hexa-histidine sequence tag (SEQ ID NO: 2) which binds to nickel-containing resins and was used for purification purposes. Spacer (SEQ ID NO: 3) was utilized to design a BamH1 restriction site at the indicated position of the construct. […]
(In general: ELISA stands for enzyme-linked immunosorbent assay.)

T1 sequence (P12931 151-248 limits assumed): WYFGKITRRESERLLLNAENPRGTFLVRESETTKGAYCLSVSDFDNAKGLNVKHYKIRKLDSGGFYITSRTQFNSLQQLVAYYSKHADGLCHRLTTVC

In general, IC50 refers to the concentration that gives 50% inhibition. On to `CC[C@H](C)[C@H](NC(=O)[C@H](CCC(=O)O)NC(=O)[C@H](CCC(=O)O)NC(=O)[C@H](Cc1ccc2c(c1)C(O)OC2=O)NC(C)=O)C(=O)N[C@@H](CCC(=O)O)C(N)=O` (stereo partly drawn) [Compound 1, (S)-alpha-(acetylamino)-1,3-dihydro-3-hydroxy-1-oxo-5-isobenzofuranpropanamido-glutamate-glutamate-isoleucine-glutamate-amine] (Ac-[X1]EEIE-NH2), for which the IC50 was 250 nM.
